For assay [1], the system named is MCF7 cell line with low HER2 expression (HER2+), p53 WT. The assay is described as follows: 72 hour cytotoxicity assay (CellTiter-Glo), MCF7. Type of assay: cell-based. Conditions: wild-type p53 (sensitive to MDM2 inhibition), FIG. 6A. How it is done:
(§1) Cell culture: Cell lines were maintained in appropriate medium supplemented with fetal bovine serum to a final concentration of 10%.
(§2) 72 hour cytotoxicity assay: Cells were plated in a 96-well format, and after 24 hour incubation, serial dilutions of SPACs from a 1 mg/mL stock, or vehicle, were then added to the cells in a final volume of 100 μl. After incubating at 37° C. for 72 hours, 100 μl of CellTiter-Glo® reagent was added to the cells, and the plates were incubated 15 minutes at room temperature. Luminescence was then measured on a microplate reader.

Assay [2] has as its system HER2+++ p53 mut breast cancer cell line (SK-BR-3). The experiment in a line: 72 hour cytotoxicity assay (CellTiter-Glo), SK-BR-3. Type of assay: cell-based. As to conditions: SK-BR-3, highly expresses HER2, mutated p53 (insensitive to MDM2 inhibition); FIG. 6B. How it is done: as §1, §2

With Trastuzumab emtansine, the anti-proliferative activity result in assay [1] is “no activity”. Also, the “activity (efficacy vs concentration)” value in assay [2] is “shows efficacy at relatively low concentration”.

For the origin of these results see patent US20260263623A1, “STAPLED PEPTIDE-ANTIBODY CONJUGATES (SPACS) AND USES THEREOF” (priority 2021, published 2026).
